The values below are quoted from earlier work in patent US6472222B2, “Method of estimating rate of nicotine metabolism in individuals” (Via Christi Research, Inc., priority 1999, dated 2002).

For the compound `CN1CCCC1c1cccnc1` (stereo not drawn) [nicotine], under “biphasic elimination, longer of two half-lives”, the “half-life (biphasic elimination, second phase)” value is about 2 h. The “half-life (biphasic elimination, first, short phase)” value (biphasic elimination, shorter of two half-lives) is “approximately 10 minutes”.

For the compound `CN1C(=O)CC[C@H]1c1cccnc1` [cotinine], the half-life entry (plasma) is recorded as “approximately 19 hours”.
